Article PMC9303812, “Asymmetrically Substituted m‐Terphenyl Phosphates Inhibit the Transcription Factor STAT5a” (Chembiochem, 2021)

Experiments:
[1] = target: T1, STAT5a (Homo sapiens, UniProt P42229); test: Fluorescence polarization (FP) binding assay, STAT5a
T1 sequence (P42229 1-794): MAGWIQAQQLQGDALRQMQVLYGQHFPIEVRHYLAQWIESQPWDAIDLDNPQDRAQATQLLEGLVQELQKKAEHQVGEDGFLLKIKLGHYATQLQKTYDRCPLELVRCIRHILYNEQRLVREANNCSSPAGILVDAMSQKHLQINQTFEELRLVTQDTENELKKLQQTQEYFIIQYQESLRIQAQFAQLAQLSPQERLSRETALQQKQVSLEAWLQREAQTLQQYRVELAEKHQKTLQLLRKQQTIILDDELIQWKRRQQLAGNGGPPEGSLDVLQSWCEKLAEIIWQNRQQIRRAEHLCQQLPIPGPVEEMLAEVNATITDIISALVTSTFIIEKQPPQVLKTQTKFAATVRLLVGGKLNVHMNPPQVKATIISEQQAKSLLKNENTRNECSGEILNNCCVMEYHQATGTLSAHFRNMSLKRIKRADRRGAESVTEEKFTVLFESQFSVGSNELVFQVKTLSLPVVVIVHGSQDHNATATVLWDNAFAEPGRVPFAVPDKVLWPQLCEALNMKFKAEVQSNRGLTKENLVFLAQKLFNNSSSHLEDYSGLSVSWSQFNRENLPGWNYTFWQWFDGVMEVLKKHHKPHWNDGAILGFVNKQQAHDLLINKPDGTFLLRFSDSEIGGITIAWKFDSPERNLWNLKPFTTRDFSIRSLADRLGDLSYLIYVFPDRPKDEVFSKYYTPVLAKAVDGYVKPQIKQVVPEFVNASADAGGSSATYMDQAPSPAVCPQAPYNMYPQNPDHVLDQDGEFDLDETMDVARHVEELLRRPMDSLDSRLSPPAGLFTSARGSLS
Procedure: (§1) Table S1: Activities of test compounds against STAT5a and STAT5b in FP assays . Experiments were carried out in triplicate (n = 3) unless stated otherwise. n/a: not applicable.
(§2) [a]data taken from the literature.[1]
(§3) Ki values were calculated from IC50 values using the published equation.[2] […]
(§4) Table S2: Activities of 12 against STAT5 proteins in FP assays.
(§5) Fluorescence polarization assays
(§6) Fluorescence polarization assays were essentially carried out as previously described.[1] These assays quantitate to which extent a test compound is able to interfere with binding between a STAT protein and a fluorescein-labeled phosphotyrosine-containing peptide, which is known to bind to the SH2 domain of the respective STAT protein. The following protein […]
(§7) concentrations were used: 100 nM for STAT1, 150 nM for STAT3, 30 nM for STAT4, 180 nM for STAT5a, 90 nM for STAT5b and 105 nM for STAT6. All peptides were used at a concentration of 10 nM. The following peptides were used: 5 -carboxyfluorescein -GpYDKPHVL for STAT1; 5-carboxyfluorescein -GpYLPQTV-NH2 for STAT3; 5-carboxyfluorescein-GpYLPQNID-OH for STAT4; 5-carboxyfluorescein-GpYLVLDKW for STAT5a/b, and 5-carboxyfluorescein-GpYVPWQDLI-OH for STAT6. As a buffer system, 10 mM Tris (pH 8.0), 50 mM NaCl, 1 mM EDTA, 1 mM DTT, 0.1 % Nonidet P-40 substitute, and 2 % DMSO in water was used. All compounds tested were incubated for 1 h with the protein. Subsequently, the fluorescein-labeled peptide was added and the fluorescence polarization was measured with an Infinite F500 plate reader (Tecan) after another hour. IC50 values were converted to Ki-values using the published equation.[2]

[2] = target: T2, STAT5b (Homo sapiens, UniProt P51692); test: Fluorescence polarization (FP) binding assay, STAT5b; settings: for inhibition at 200 µM: read-out: STAT5b inhibition at 200 μM
T2 sequence (P51692 1-787): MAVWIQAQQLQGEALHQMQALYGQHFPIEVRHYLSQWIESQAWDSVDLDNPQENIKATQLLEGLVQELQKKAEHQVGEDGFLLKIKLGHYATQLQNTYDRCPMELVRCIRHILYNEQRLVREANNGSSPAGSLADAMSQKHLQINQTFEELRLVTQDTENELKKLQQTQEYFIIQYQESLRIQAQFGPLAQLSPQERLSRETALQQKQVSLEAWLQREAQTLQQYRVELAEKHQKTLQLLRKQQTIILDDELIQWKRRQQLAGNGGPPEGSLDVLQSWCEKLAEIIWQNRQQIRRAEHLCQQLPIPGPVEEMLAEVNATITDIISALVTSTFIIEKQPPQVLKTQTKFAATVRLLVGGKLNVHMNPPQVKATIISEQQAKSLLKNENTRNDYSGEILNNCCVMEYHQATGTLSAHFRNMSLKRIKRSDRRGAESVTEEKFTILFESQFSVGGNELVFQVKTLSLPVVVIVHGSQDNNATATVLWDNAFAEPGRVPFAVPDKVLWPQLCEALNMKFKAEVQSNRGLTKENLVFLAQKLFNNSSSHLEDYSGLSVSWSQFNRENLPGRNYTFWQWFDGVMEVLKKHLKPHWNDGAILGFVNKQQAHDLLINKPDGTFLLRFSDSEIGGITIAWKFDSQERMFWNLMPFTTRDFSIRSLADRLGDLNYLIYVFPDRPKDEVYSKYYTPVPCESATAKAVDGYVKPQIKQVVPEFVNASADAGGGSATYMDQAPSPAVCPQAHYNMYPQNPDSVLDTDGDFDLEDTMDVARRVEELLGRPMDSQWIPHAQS
Procedure: as §1, §2, §3, §4, §5, §6, §7

[3] = target: T1, STAT5a; settings: cited from earlier work

Compound | IC50 [1] | Ki [1] | IC50 [2] | Ki [2] | melting point | inhibition at 200 µM [2] | selectivity for STAT5a over STAT5b [3]
COc1cc(-c2cc(OP(=O)(O)O)cc(-c3cc(Cl)c(Cl)c(Cl)c3)c2)cc(OC)c1OC [6 a] | 21.8 ± 0.9 µM | 10.2 ± 0.4 µM | 47 ± 2.6 µM | 23.1 ± 1.3 µM | – | – | –
COc1cc(-c2cc(OP(=O)(O)O)cc(-c3ccc(Cl)cc3)c2)cc(OC)c1OC [6 c] | 45.7 ± 3.3 µM | 22.6 ± 1.6 µM | 93.8 ± 1.5 µM | 46.1 ± 0.8 µM | 129 °C | – | –
COc1cc(-c2cc(OP(=O)(O)O)cc(-c3ccc(F)cc3)c2)cc(OC)c1OC [6 d] | 66.5 ± 5 µM | 33 ± 2.5 µM | – | – | 165 °C | 51 ± 4% | –
COc1cc(-c2cc(OP(=O)(O)O)cc(-c3ccc(Cl)c(F)c3)c2)cc(OC)c1OC [6 e] | 34.7 ± 4.4 µM | 17.1 ± 2.2 µM | 104 ± 9.5 µM | 51.2 ± 4.7 µM | 127 °C | – | –
COc1cc(-c2cc(OP(=O)(O)O)cc(-c3ccc(C(N)=O)cc3)c2)cc(OC)c1OC [6 f] | 68.9 ± 4.9 µM | 34.1 ± 2.4 µM | – | – | – | 21 ± 6% | –
CCOC(=O)c1ccc(-c2cc(OP(=O)(O)O)cc(-c3cc(OC)c(OC)c(OC)c3)c2)cc1 [6 g] | 91.2 ± 5.5 µM | 45.2 ± 2.7 µM | 125 ± 3.7 µM | 61.3 ± 1.8 µM | 150 °C | – | –
COc1cc(-c2cc(OP(=O)(O)O)cc(-c3ccc(C(=O)O)cc3)c2)cc(OC)c1OC [6 h] | 36.8 ± 2.2 µM | 18.2 ± 1.1 µM | – | – | 152 °C | 50 ± 2% | –
COc1cc(-c2cc(OP(=O)(O)O)cc(-c3ccc(C(C)C)cc3)c2)cc(OC)c1OC [6 i] | 48.5 ± 4.8 µM | 24 ± 2.4 µM | 51.8 ± 5.1 µM | 25.5 ± 2.5 µM | 182 °C | – | –
COc1cc(-c2cc(OP(=O)(O)O)cc(-c3ccc(C(C)(C)C)cc3)c2)cc(OC)c1OC [6 j] | 66.9 ± 4.9 µM | 33.2 ± 2.4 µM | 51.4 ± 4.9 µM | 25.3 ± 2.4 µM | – | – | –
COc1cc(-c2cc(OP(=O)(O)O)cc(-c3cc(OC)c(OC)c(OC)c3)c2)cc(OC)c1OC [compound 1] | – | – | – | – | – | – | at least 9 fold
